Measured values reported in patent publication US20250345492A1, “AN ANTIBACTERIAL POLYPEPTIDE COMPOUND, A MEDICAL DEVICE, HYDROGEL AND USE THEREOF” (priority 2020, published 2025).
Converted amounts (≈) assume the structure as drawn. Read-outs that look alike come from different tables or passages of the source. Ends that are not written are not given here. Peptide text beside a SMILES is read from it.

Key:
[1] = tested on: Bacillus subtilis (ATCC 23857)
Excerpt: (§1) With respect to the determination of antibacterial activity and antifungal activity of the antibacterial polypeptide compounds, the bacterial strains employed included: E. coli (ATCC 25922), E. coli (ATCC 43837), Pseudomonas aeruginosa (ATCC 27853), Klebsiella pneumoniae (ATCC 700603), Cronobacter sakazakii (ATCC 29544), Staphylococcus aureus (ATCC 29213), Bacillus subtilis (ATCC 23857) and Staphylococcus epidermidis (ATCC 12228); and the fungal strains employed included Candida albicans (ATCC 14053), Candida glabrata (ATCC 2001), Candida parapsilosis (ATCC 22019), Candida tropicalis (ATCC 750) and Candida krusei (ATCC 6258), all of which were standard strains from American Type Culture Collection. In addition, drug-resistant strains S-1a, S-2a, S-3a, S-4a, E-1b, E-2b, E-3b, E-4b, E-5b, P-1c, P-2c, P-3c, P-4c, P-5c, and clinically isolated fungal strains Candida glabrata 2-1 and Candida albicans 14-1, 14-2 and 14-3 were employed, all which were clinically isolated.
(§2) Simply, a proper amount of the cryopreserved bacterium or fungus was added to fresh MH/SD medium, and cultured on a shaker overnight at 180 rpm at 37° C. The obtained cells were seeded again and cultured on a shaker for 4-5 hours to obtain cells in logarithmic phase. The resulting cells were added to a 96-well plate (1×10^5 CFU/ml, 100 μL/well), and then 100 μL of polypeptide with different concentrations (1-256 μM) twice the final concentrations was added to corresponding well according to the 2-fold serial dilution method. The fresh medium was used as a negative control, which was prepared in triplicate for each concentration. After dosing, the 96-well plate was placed in an incubator at constant 37° C. and humidity for 12 hours to observe the results. According to naked eye observations, the concentration of the compound in the first transparent well following the turbid wells was recorded as the MIC of the compound, namely, the MIC value of the compound to the bacterium or fungus.

C. albicans ATCC14053 = tested on: C. albicans ATCC14053
Excerpt: as §1, §2

C. glabrata ATCC22019 = tested on: C. glabrata ATCC22019
Excerpt: as §1, §2

C. krusei ATCC6258 = tested on: C. krusei ATCC6258
Excerpt: as §1, §2

C. parapsilosis ATCC2001 = tested on: C. parapsilosis ATCC2001
Excerpt: as §1, §2

C. tropicalis ATCC750 = tested on: C. tropicalis ATCC750
Excerpt: as §1, §2

[2] = tested on: Cronobacter sakazakii (ATCC 29544)
Excerpt: as §1, §2

[3] = tested on: E-1b, clinical isolated drug-resistant strain ESBL; details: strain E-1b (ESBL)
Excerpt: as §1, §2

[4] = tested on: E-2b, clinical isolated drug-resistant strain ESBL; details: strain E-2b (ESBL)
Excerpt: as §1, §2

[5] = tested on: E-3b, clinical isolated drug-resistant strain ESBL; details: strain E-3b (ESBL)
Excerpt: as §1, §2

[6] = tested on: E-4b, clinical isolated drug-resistant strain ESBL; details: strain E-4b (ESBL)
Excerpt: as §1, §2

[7] = tested on: E-5b, clinical isolated drug-resistant strain ESBL; details: strain E-5b (ESBL)
Excerpt: as §1, §2

E. coli (ATCC 25922) = tested on: E. coli (ATCC 25922)
Excerpt: as §1, §2

[8] = tested on: P-1c, clinical isolated drug-resistant strain PA; details: strain P-1c (PA)
Excerpt: as §1, §2

[9] = tested on: P-2c, clinical isolated drug-resistant strain PA; details: strain P-2c (PA)
Excerpt: as §1, §2

[10] = tested on: P-3c, clinical isolated drug-resistant strain PA; details: strain P-3c (PA)
Excerpt: as §1, §2

[11] = tested on: P-4c, clinical isolated drug-resistant strain PA; details: strain P-4c (PA)
Excerpt: as §1, §2

[12] = tested on: P-5c, clinical isolated drug-resistant strain PA; details: strain P-5c (PA)
Excerpt: as §1, §2

[13] = tested on: Pseudomonas aeruginosa (ATCC 27853); details: standard strain
Excerpt: as §1, §2

[14] = tested on: S-1a, clinical isolated drug-resistant strain MRSA; details: strain S-1a (MRSA)
Excerpt: as §1, §2

[15] = tested on: S-2a, clinical isolated drug-resistant strain MRSA; details: strain S-2a (MRSA)
Excerpt: as §1, §2

[16] = tested on: S-3a, clinical isolated drug-resistant strain MRSA; details: strain S-3a (MRSA)
Excerpt: as §1, §2

[17] = tested on: S-4a, clinical isolated drug-resistant strain MRSA; details: strain S-4a (MRSA)
Excerpt: as §1, §2

[18] = tested on: Staphylococcus aureus (ATCC 29213)
Excerpt: as §1, §2

[19] = tested on: Staphylococcus epidermidis (ATCC 12228)
Excerpt: as §1, §2

[20] = tested on: human cervical cancer cell Hela; test: Cytotoxicity, MTT colorimetry; assay type: cell-based
Procedure: (§3) For cytotoxicity determination, the MTT colorimetry was used to evaluate the effects of the compounds on the proliferation of human cervical cancer cell Hela, human embryonic renal epithelial cell HEK293 and mouse mononuclear macrophage RAW264.7.
(§4) Taking compounds 2, 8, 9, 13 and 15 of the present invention as examples, the cytotoxicity of the antibacterial polypeptide compounds was analyzed. Three cell lines were employed for the present invention, namely human cervical cancer cell Hela, human embryonic renal epithelial cell HEK293 and mouse mononuclear macrophage RAW264.7. Hela cells were cultured in RPMI 1640 medium with 10% newborn calf serum, HEK293 cells and RAW264.7 cells were cultured in DMEM medium with 10% fetal bovine serum. Simply, cells (1×10^4 cells/well) were inoculated to a 96-well plate and incubated in an incubator set to 5% CO2 at 37° C. After 24 hours, compounds of different concentrations were added and incubated in the 5% CO2 incubator. After 24 hours, 20 μL of MTT solution with a concentration of 5 mg/mL was added to each well and incubated for 4 hours. After that, the medium was removed with a pipet, and 150 μL of DMSO added to dissolve the purple-blue formazan crystals. The solution was shaken in an oscillator for 5 mins before detecting the absorbance value at 570 nm using the ELISA reader, and then the survival rate was calculated with the formula: (OD dosing group/OD control group)×100% (n=3).

[21] = tested on: human embryonic renal epithelial cell HEK293; test: Cytotoxicity, MTT colorimetry; assay type: cell-based
Procedure: as §3, §4

[22] = tested on: mouse mononuclear macrophage RAW264.7; test: Cytotoxicity, MTT colorimetry; assay type: cell-based
Procedure: as §3, §4

Acute toxicity in mice = test: Acute toxicity in mice; set-up: species or system Kunming mice; details: mouse, in vivo, ip, intraperitoneal injection, Karber method
Procedure: Acute toxicity of the compounds was determined by measuring the acute toxicity in mice with the compounds.
Taking compounds 2, 8, 9, 13 and 15 of the present invention as examples, […]. The mice used in this test were Kunming mice, which were placed in constant-temperature environment (22±1° C.) and could freely obtain water and food. Simply, 132 healthy Kunming mice were randomly divided into 11 groups, with 12 mice in each group (half male and half female), wherein, 5 groups were intraperitoneally injected with 0.2 ml of the compounds of different doses (100-1000 mg/kg), and the control group was intraperitoneally injected with normal saline. In this experiment, melittin was used as a reference control, and the other 5 groups were intraperitoneally injected with melittin of different doses (10-32 mg/kg). The state of mice was observed and recorded after 2 hours of administration, and then observed twice a day for 14 days, and the survival rates of the mice were recorded.

| Molecule | MIC [3] | MIC [4] | MIC [5] | MIC [6] | MIC [7] | MIC [8] | MIC [9] | MIC [10] | MIC [11] | MIC [12] | MIC P. aerugmosa ATCC27853 [13] | MIC [14] | MIC [15] | MIC [16] | MIC [17] | LD50 (Acute toxicity in mice) | also measured |
| --- | --- | --- | --- | --- | --- | --- | --- | --- | --- | --- | --- | --- | --- | --- | --- | --- | --- |
| CC(C)C[C@H](NC(=O)[C@H](CCCCN)NC(=O)[C@H](CC(C)C)NC(=O)[C@H](CO)NC(=O)[C@H](CC(C)C)NC(=O)[C@H](CCCN)NC(=O)[C@H](Cc1ccccc1)NC(=O)[C@@H]1CCCN1)C(N)=O [Compound 2, Pro-Phe-Orn-Leu-Ser-Leu-Lys-Leu-NH2] (HELM PEPTIDE1{P.F.[Orn].L.S.L.K.L.[am]}$$$$V2.0) | 16 µM (≈ 14.9 µg/mL) | 16 µM (≈ 14.9 µg/mL) | 16 µM (≈ 14.9 µg/mL) | 8 µM (≈ 7.44 µg/mL) | 8 µM (≈ 7.44 µg/mL) | 8 µM (≈ 7.44 µg/mL) | 8 µM (≈ 7.44 µg/mL) | 8 µM (≈ 7.44 µg/mL) | 8 µM (≈ 7.44 µg/mL) | 8 µM (≈ 7.44 µg/mL) | 8 µM (≈ 7.44 µg/mL) | 64 µM (≈ 59.5 µg/mL) | 64 µM (≈ 59.5 µg/mL) | 64 µM (≈ 59.5 µg/mL) | 64 µM (≈ 59.5 µg/mL) | > 1000 mg/kg | MIC B. subtilis ATCC23857 ([1]; standard strain): 16 µM (≈ 14.9 µg/mL); MIC C. albicans ATCC14053 (C. albicans ATCC14053; fungus): 32 µM (≈ 29.8 µg/mL); MIC C. glabrata ATCC22019 (C. glabrata ATCC22019; fungus): 32 µM (≈ 29.8 µg/mL); MIC C. krusei ATCC6258 (C. krusei ATCC6258; fungus): 32 µM (≈ 29.8 µg/mL); MIC C. parapsilosis ATCC2001 (C. parapsilosis ATCC2001; fungus): 16 µM (≈ 14.9 µg/mL); MIC C. tropicalis ATCC750 (C. tropicalis ATCC750; fungus): 32 µM (≈ 29.8 µg/mL); MIC C. sakazakii ATCC29544 ([2]; standard strain): 32 µM (≈ 29.8 µg/mL); MIC C. coli ATCC25922 (E. coli (ATCC 25922); standard strain): 16 µM (≈ 14.9 µg/mL); MIC S. aureus ATCC29213 ([18]; standard strain): 64 µM (≈ 59.5 µg/mL); MIC S. epidermidis ATCC12228 ([19]; standard strain): 16 µM (≈ 14.9 µg/mL); effect on proliferation (inhibitory activity) ([20]; Hela cell line, MTT, 24 hours): no inhibitory activity; effect on proliferation (inhibitory activity) ([21]; HEK293 cell line, MTT, 24 hours): no inhibitory activity; effect on proliferation (inhibitory activity) ([22]; RAW 264.7 cell line, MTT, 24 hours): no inhibitory activity |
| PWRLRLRL-NH2 [Compound 15] | 4 µM | 4 µM | 4 µM | 4 µM | 4 µM | 8 µM | 8 µM | 8 µM | 8 µM | 8 µM | 8 µM | 8 µM | 8 µM | 8 µM | 8 µM | > 1000 mg/kg | MIC B. subtilis ATCC23857 ([1]; ATCC 23857): 4 µM; MIC C. albicans ATCC14053 (C. albicans ATCC14053; ATCC14053): 4 µM; MIC C. glabrata ATCC22019 (C. glabrata ATCC22019; ATCC22019): 4 µM; MIC C. krusei ATCC6258 (C. krusei ATCC6258; ATCC6258): 16 µM; MIC C. parapsilosis ATCC2001 (C. parapsilosis ATCC2001; ATCC2001): 4 µM; MIC C. tropicalis ATCC750 (C. tropicalis ATCC750; ATCC750): 4 µM; MIC C. sakazakii ATCC29544 ([2]; ATCC 29544): 8 µM; MIC C. coli ATCC25922 (E. coli (ATCC 25922); ATCC 25922): 4 µM; MIC S. aureus ATCC29213 ([18]; ATCC 29213): 8 µM; MIC S. epidermidis ATCC12228 ([19]; ATCC 12228): 8 µM; effect on proliferation (inhibitory activity) [20]: no inhibitory activity; effect on proliferation (inhibitory activity) [21]: no inhibitory activity; effect on proliferation (inhibitory activity) [22]: no inhibitory activity |
